Test results taken from PMC5936891, “A focused library synthesis and cytotoxicity of quinones derived from the natural product bolinaquinone” (Royal Society Open Science, 2018).
“Also recorded” adds a separate entry of the source. Like-named read-outs stand apart in the source and are kept apart here.

Columns and labels:
[1] = test system: A2780 (ovarian carcinoma); assay: MTT in vitro growth inhibition assay, A2780; type: cell-based; conditions: Homo sapiens; for inhibition at 25 µM: 25 µM of drug, 72 h, read-out: Percentage of Cell Growth Inhibition A2780
[2] = test system: SMA (spontaneous murine astrocytoma); assay: MTT in vitro growth inhibition assay, SMA; type: cell-based; conditions: Mus musculus; for inhibition at 25 µM: 25 µM of drug, 72 h, read-out: Percentage of Cell Growth Inhibition SMA
[3] = test system: MIA (pancreatic carcinoma); assay: MTT in vitro growth inhibition assay, MIA; type: cell-based; conditions: for inhibition at 25 µM: 25 µM of drug, 72 h, read-out: Percentage of Cell Growth Inhibition MIA
HT29 (colon carcinoma) = assay: MTT in vitro growth inhibition assay, HT29; type: cell-based; conditions: Homo sapiens; for inhibition at 25 µM: HT-29, 25 µM of drug, 72 h, read-out: Percentage of Cell Growth Inhibition HT29
[4] = test system: Du145 (prostate carcinoma); assay: MTT in vitro growth inhibition assay, Du145; type: cell-based; conditions: Homo sapiens; for inhibition at 25 µM: DU-145, 25 µM of drug, 72 h, read-out: Percentage of Cell Growth Inhibition Du145
MCF-7 (breast carcinoma) = assay: MTT in vitro growth inhibition assay, MCF-7; type: cell-based; conditions: Homo sapiens; for inhibition at 25 µM: MCF7, 25 µM of drug, 72 h, read-out: Percentage of Cell Growth Inhibition MCF-7
H460 (lung carcinoma) = assay: MTT in vitro growth inhibition assay, H460; type: cell-based; conditions: Homo sapiens; for inhibition at 25 µM: NCI-H460, 25 µM of drug, 72 h, read-out: Percentage of Cell Growth Inhibition H460
BE2-C (neuroblastoma) = assay: MTT in vitro growth inhibition assay, BE2-C; type: cell-based; conditions: Homo sapiens, BE(2)-C, 72 h; for inhibition at 25 µM: 25 µM of drug, read-out: Percentage of Cell Growth Inhibition BE2-C
SJ-G2 (glioblastoma) = assay: MTT in vitro growth inhibition assay, SJ-G2; type: cell-based; conditions: for inhibition at 25 µM: 25 µM of drug, 72 h, read-out: Percentage of Cell Growth Inhibition SJ-G2
[5] = test system: MCF10A (normal breast cell line); assay: MTT in vitro growth inhibition assay, MCF10A; type: cell-based; conditions: Homo sapiens, MCF-10A; for inhibition at 25 µM: 25 µM of drug, 72 h, read-out: Percentage of Cell Growth Inhibition MCF10A
A431 (skin carcinoma) = assay: MTT in vitro growth inhibition assay, A431; type: cell-based; conditions: Homo sapiens; for inhibition at 25 µM: A-431, 25 µM of drug, 72 h, read-out: Percentage of Cell Growth Inhibition A431
U87 (glioblastoma) = assay: MTT in vitro growth inhibition assay, U87; type: cell-based; conditions: for inhibition at 25 µM: 25 µM of drug, 72 h, read-out: Percentage of Cell Growth Inhibition U87
[6] = test system: panel of 11 cancer cell lines and one normal cell line; assay: Cytotoxicity across the whole cell line panel (MTT); type: cell-based; conditions: for activity at the initial screening concentration (to proceed to GI50 determination): 25 µM single dose
Description: With the desired bolinaquinone analogues 12–43 in hand, we examined their cytotoxicity against a panel of 11 tumour cell lines: HT29 (colon carcinoma), U87 and SJ-G2 (glioblastoma), MCF-7 (breast carcinoma), A2780 (ovarian carcinoma), H460 (lung carcinoma), A431 (skin carcinoma), Du145 (prostate carcinoma), BE2-C (neuroblastoma), MIA (pancreatic carcinoma), SMA (spontaneous murine astrocytoma) and a normal breast cell line (MCF10A). The inclusion of the MCF-10A cell line allowed a determination of a crude measure of relative toxicity while noting that the ultimate arbiter of toxicity requires in vivo evaluation. All analogues were initially screened at a 25 µM drug concentration.
Stock solutions were prepared as follows and stored at −20°C: drugs were stored as 40 mM solutions in DMSO. All cell lines were cultured in a humidified atmosphere 5% CO2 at 37°C. The cancer cell lines were maintained in Dulbecco's modified Eagle's medium (DMEM) (Trace Biosciences, Australia) supplemented with 10% fetal bovine serum, 10 mM sodium bicarbonate, penicillin (100 IU ml^−1), streptomycin (100 µg ml^−1) and glutamine (4 mM). The non-cancer MCF10A cell line was cultured in DMEM:F12 (1 : 1) cell culture media, 5% heat-inactivated horse serum, supplemented with penicillin (50 IU ml^−1), streptomycin (50 µg ml^−1), 20 mM Hepes, L-glutamine (2 mM), epidermal growth factor (20 ng ml^−1), hydrocortisone (500 ng ml^−1), cholera toxin (100 ng ml^−1) and insulin (10 ug ml^−1).
Cells in logarithmic growth were transferred to 96-well plates. Cytotoxicity was determined by plating cells in duplicate in 100 µl medium at a density of 2500–4000 cells per well. On day 0 (24 h after plating), when the cells were in logarithmic growth, 100 μl of medium with or without the test agent was added to each well. After 72 h, drug exposure growth inhibitory effects were evaluated using the MTT (3-[4,5-dimethylthiazol-2-yl]-2,5-diphenyl-tetrazolium bromide) assay and the absorbance read at 540 nm. Percentage growth inhibition was determined at a fixed drug concentration of 25 µM. A value of 100% is indicative of complete cell growth inhibition. Those analogues showing appreciable percentage growth inhibition underwent further dose–response analysis allowing for the calculation of a GI50 value. This value is the drug concentration at which cell growth is 50% inhibited based on the difference between the optical density values on day 0 and those at the end of drug exposure.

| Compound | inhibition at 25 µM [1] [%] | inhibition at 25 µM [2] [%] | inhibition at 25 µM [3] [%] | inhibition at 25 µM (HT29 (colon carcinoma)) [%] | inhibition at 25 µM [4] [%] | melting point [°C] | inhibition at 25 µM (MCF-7 (breast carcinoma)) [%] | inhibition at 25 µM (H460 (lung carcinoma)) [%] | inhibition at 25 µM (BE2-C (neuroblastoma)) [%] | inhibition at 25 µM (SJ-G2 (glioblastoma)) [%] | inhibition at 25 µM [5] [%] | inhibition at 25 µM (A431 (skin carcinoma)) [%] | inhibition at 25 µM (U87 (glioblastoma)) [%] | activity at the initial screening concentration (to proceed to GI50 determination) [6] | further results |
| --- | --- | --- | --- | --- | --- | --- | --- | --- | --- | --- | --- | --- | --- | --- | --- |
| COC1=CC(=O)C(OC)=C(c2cccc(OC)c2)C1=O [compound 19, 3-(3-Methoxyphenyl)-2,5-dimethoxycyclohexa-2,5-diene-1,4-diene] | 60 ± 11 | 40 ± 8 | 20 ± 6 | 13 ± 4 | 24 ± 6 | 72 to 75 | 36 ± 14 | 19 ± 1 | 70 ± 5 | 26 ± 12 | 15 ± 3 | 22 ± 2 | 20 ± 5 | not sufficiently active | – |
| COC1=CC(=O)C(OC)=C(c2cccc(OC)c2OC)C1=O [compound 22, 2,5-Dimethoxy-3-(2,3-dimethoxyphenyl)cyclohexa-2,5-diene-1,4-dione] | 44 ± 8 | 31 ± 7 | 24 ± 4 | 15 ± 1 | 23 ± 9 | 122 to 125 | 16 ± 10 | 20 ± 2 | 75 ± 8 | 23 ± 10 | 18 ± 2 | 35 ± 5 | 14 ± 8 | not sufficiently active | – |
| COC1=CC(=O)C(OC)=C(c2ccc(OC)c(OC)c2)C1=O [compound 23, 2,5-Dimethoxy-3-(3,4-dimethoxyphenyl)cyclohexa-2,5-diene-1,4-dione] | > 100 | > 100 | > 100 | > 100 | 81 ± 4 | 135 to 137 | > 100 | 77 ± 4 | > 100 | > 100 | 62 ± 4 | 95 ± 4 | > 100 | – | GI50 ([1]; 72 h drug exposure): 3.8 ± 0.75 µM; GI50 ([2]; 72 h drug exposure): 3.9 ± 0.54 µM; GI50 ([3]; 72 h drug exposure): 4.8 ± 0.91 µM; GI50 (HT29 (colon carcinoma); HT-29, 72 h drug exposure): 11 ± 0.17 µM; GI50 ([4]; DU-145, 72 h, 72 h drug exposure): 13 ± 0.58 µM; GI50 (MCF-7 (breast carcinoma); MCF7, 72 h drug exposure): 6.1 ± 1.1 µM; GI50 (H460 (lung carcinoma); NCI-H460, 72 h drug exposure): 15 ± 2 µM; GI50 (BE2-C (neuroblastoma); 72 h drug exposure): 3 ± 0.35 µM; GI50 (SJ-G2 (glioblastoma); 72 h drug exposure): 12 ± 0.67 µM; GI50 ([5]; normal breast cell line, 72 h drug exposure): 19 ± 1.3 µM; GI50 (A431 (skin carcinoma); A-431, 72 h, 72 h drug exposure): 13 ± 0.58 µM; GI50 (U87 (glioblastoma); 72 h drug exposure): 9.5 ± 1.2 µM; cytotoxicity spectrum across the panel [6]: broad-spectrum active; GI50 ([6]; average over the cell line panel, read-out: average GI50): 10.2 µM; GI50 ([6]; span over the cell line panel, read-out: GI50 values across the cell lines examined (range)): 3 to 15 µM |
| COC1=CC(=O)C(OC)=C(c2ccc3ccccc3c2)C1=O [compound 24, 2,5-Dimethoxy-3-(naphthalene-3-yl)cycloheza-2,5-diene-1,4-dione] | 54 ± 15 | 31 ± 10 | < 10 | < 10 | 11 | 137 to 139 | 22 ± 6 | 12 ± 4 | 65 ± 20 | 20 ± 4 | 13 ± 6 | < 10 | 15 ± 4 | not sufficiently active; also recorded: inactive | – |
| COC1=CC(=O)C(OC)=C(c2cc3ccccc3s2)C1=O [compound 26, 3-(Benzo[b]thiophen-2-yl)-2,5-dimethoxycyclohexa-2,5-diene-1,4-dione] | 61 ± 1 | 60 ± 3 | 59 ± 2 | 70 ± 2 | 66 ± 5 | 205 to 207 | 79 ± 4 | 49 ± 8 | 72 ± 3 | 42 ± 3 | 65 ± 4 | 75 ± 1 | 42 ± 5 | not sufficiently active; also recorded: did not proceed to GI50 determination | – |
